{"source": "ChEMBL document CHEMBL4627415", "about": "“Design and Structural Optimization of Dual FXR/PPARδ Activators” (J Med Chem, 2020)", "key": {"[1]": {"molecular_target": "T1, Peroxisome proliferator-activated receptor delta (Homo sapiens, UniProt Q03181)", "T1 sequence (Q03181 whole entry)": "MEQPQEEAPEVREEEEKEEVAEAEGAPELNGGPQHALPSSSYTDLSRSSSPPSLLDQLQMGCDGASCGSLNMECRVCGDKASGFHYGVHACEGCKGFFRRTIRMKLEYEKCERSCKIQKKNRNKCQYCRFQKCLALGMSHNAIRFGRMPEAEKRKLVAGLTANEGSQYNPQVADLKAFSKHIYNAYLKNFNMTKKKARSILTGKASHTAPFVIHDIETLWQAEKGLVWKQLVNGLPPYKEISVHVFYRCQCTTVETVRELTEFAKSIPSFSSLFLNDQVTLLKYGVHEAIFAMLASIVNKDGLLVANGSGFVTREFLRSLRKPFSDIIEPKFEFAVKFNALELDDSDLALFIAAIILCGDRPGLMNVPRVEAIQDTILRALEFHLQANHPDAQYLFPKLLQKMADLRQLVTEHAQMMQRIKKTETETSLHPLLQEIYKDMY", "assay": "Activation of human PPAR-delta LBD expressed in HEK293T cells assessed as induction of receptor activation incubated for 12 to 14 hrs by luciferase reporter gene assay", "format": "cell-based, HEK-293T"}, "[2]": {"molecular_target": "T2, Peroxisome proliferator-activated receptor delta (Homo sapiens) (UniProt Q03181)", "T2 sequence (whole entry)": "T1 sequence (Q03181 whole entry)", "assay": "Activation of human PPAR-delta LBD expressed in HEK293T cells assessed as induction of receptor activation at 1 uM incubated for 12 to 14 hrs by luciferase reporter gene assay relative to L165,041", "format": "cell-based", "settings": "HEK-293T"}, "[3]": {"molecular_target": "T3, Retinoic acid receptor RXR-alpha (Homo sapiens) (UniProt P19793)", "T3 sequence (whole entry)": "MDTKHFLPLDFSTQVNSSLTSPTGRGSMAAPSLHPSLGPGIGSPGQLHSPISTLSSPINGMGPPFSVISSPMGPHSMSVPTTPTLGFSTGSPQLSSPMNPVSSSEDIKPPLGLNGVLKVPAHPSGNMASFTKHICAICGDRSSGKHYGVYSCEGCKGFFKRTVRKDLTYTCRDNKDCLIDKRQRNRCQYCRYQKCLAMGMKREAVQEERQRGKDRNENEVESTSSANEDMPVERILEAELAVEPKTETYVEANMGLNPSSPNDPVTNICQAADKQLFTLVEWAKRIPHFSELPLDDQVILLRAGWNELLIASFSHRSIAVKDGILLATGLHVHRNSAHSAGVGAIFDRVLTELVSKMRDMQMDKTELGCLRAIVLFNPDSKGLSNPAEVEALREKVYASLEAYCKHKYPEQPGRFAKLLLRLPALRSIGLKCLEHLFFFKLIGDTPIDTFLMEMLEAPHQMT", "assay": "Activation of human RXR-alphaLBD expressed in HEK293T cells assessed as induction of receptor activation at 10 uM incubated for 12 to 14 hrs by luciferase reporter gene assay", "format": "cell-based", "settings": "HEK-293T"}, "[4]": {"molecular_target": "T4, Oxysterols receptor LXR-alpha (Homo sapiens) (UniProt Q13133)", "T4 sequence (whole entry)": "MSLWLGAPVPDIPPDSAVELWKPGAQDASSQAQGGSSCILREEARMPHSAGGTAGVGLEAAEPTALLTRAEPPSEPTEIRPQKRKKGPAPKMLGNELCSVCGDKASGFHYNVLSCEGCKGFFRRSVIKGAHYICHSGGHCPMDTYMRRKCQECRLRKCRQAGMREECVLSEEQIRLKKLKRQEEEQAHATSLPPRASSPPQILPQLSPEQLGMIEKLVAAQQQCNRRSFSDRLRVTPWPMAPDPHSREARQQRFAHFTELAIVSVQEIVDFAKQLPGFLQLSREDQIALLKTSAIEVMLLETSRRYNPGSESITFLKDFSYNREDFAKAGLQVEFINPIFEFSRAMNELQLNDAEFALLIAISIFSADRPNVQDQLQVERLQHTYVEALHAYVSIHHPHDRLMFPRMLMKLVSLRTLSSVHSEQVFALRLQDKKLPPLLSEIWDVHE", "assay": "Activation of human LXR-alpha LBD expressed in HEK293T cells assessed as induction of receptor activation at 10 uM incubated for 12 to 14 hrs by luciferase reporter gene assay", "format": "cell-based", "settings": "HEK-293T"}, "[5]": {"molecular_target": "T5, Bile acid receptor (Homo sapiens) (UniProt Q96RI1)", "T5 sequence (whole entry)": "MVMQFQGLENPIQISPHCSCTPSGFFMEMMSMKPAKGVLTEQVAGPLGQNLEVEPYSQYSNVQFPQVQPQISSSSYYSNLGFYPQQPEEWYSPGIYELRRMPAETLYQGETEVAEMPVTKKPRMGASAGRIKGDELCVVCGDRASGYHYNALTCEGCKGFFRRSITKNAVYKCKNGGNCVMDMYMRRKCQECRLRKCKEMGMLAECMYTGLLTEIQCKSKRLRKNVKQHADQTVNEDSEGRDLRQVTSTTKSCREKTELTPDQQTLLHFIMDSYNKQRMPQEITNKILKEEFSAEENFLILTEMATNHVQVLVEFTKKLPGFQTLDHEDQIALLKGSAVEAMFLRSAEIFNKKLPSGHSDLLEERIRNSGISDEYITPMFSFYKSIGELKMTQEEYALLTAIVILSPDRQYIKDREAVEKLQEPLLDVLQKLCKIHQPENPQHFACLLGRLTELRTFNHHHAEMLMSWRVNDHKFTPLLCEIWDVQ", "assay": "Activation of FXR in human HepG2 cells assessed as decrease in CYP7A1 mRNA expression at 3 uM incubated for 8 hrs by quantitative real time PCR analysis", "format": "cell-based"}, "[6]": {"molecular_target": "T6, Peroxisome proliferator-activated receptor delta (Mus musculus) (UniProt P35396)", "T6 sequence (whole entry)": "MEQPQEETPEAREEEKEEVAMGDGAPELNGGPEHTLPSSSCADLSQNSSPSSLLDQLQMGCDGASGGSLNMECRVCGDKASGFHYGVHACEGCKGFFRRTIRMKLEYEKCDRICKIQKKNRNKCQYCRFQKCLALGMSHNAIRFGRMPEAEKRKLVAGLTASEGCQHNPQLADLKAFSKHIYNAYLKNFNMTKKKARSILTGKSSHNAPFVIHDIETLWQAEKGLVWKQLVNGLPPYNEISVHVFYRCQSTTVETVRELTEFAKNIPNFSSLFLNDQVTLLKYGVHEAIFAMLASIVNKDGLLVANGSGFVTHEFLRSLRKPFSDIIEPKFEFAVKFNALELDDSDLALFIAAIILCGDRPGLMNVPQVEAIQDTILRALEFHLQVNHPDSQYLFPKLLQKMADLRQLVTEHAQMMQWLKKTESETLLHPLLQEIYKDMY", "assay": "Activation of PPARD in mouse C2C12 cells assessed as increase LpL mRNA expression at 3 uM incubated for 8 hrs by quantitative real time PCR analysis", "format": "cell-based"}, "[7]": {"assay": "Aqueous solubility in pH 8 buffer by HPLC analysis", "format": "physicochemical"}, "[8]": {"assay": "Stability in Sprague-Dawley rat liver microsomes assessed as remaining parent compound level at 10 uM presence of NADPH regenerating system by HPLC analysis", "format": "ADME, Microsome", "settings": "read-out: Stability"}}, "note": "Activity calls are given as the source filed them. No cut-off for these calls is given here."}
{"smiles": "CC(C)c1onc(-c2c(Cl)cccc2Cl)c1COc1ccc(CNc2ccc(CC(=O)O)cc2)c(Cl)c1", "values": [{"measurement": "EC50", "setting": "[1]", "value": 1500, "unit": "nM"}, {"measurement": "%max", "setting": "[2]", "value": 17, "unit": "%"}, {"measurement": "Activity", "setting": "[3]", "value": "inactive"}, {"measurement": "Activity", "setting": "[4]", "value": "inactive"}, {"measurement": "Activity", "setting": "[5]", "value": "Active"}, {"measurement": "Activity", "setting": "[6]", "value": "Active"}, {"measurement": "solubility", "setting": "[7]", "value": 159, "unit": "µg/mL"}, {"measurement": "remaining at 10 µM", "setting": "[8]", "value": 48, "unit": "%"}]}
